The assay deals with T1, Full-length, GST-tagged, human CaMKIIδ (Homo sapiens, UniProt Q13557).
T1 construct: Full-Length, Glutathione-S-Transferase(GST)-Tagged, Human CaMKIIδ was purchased from Carna Biosciences; purchased Carna Biosciences 02-111
Briefly: CaMKIIδ binding assay (TR-FRET with BODIPY-labeled probe ligand). An outline of the steps:
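TR-FRET probe-displacement binding: 0.5 nM GST-CaMKIIδ with 10 μg/mL calmodulin, 1 mM CaCl2, 0.21 nM Tb-anti-GST Ab and 300 nM BODIPY probe in HEPES pH 7.6 buffer. Eight-point 4-fold dilutions, 1 hr at room temperature. IC50 from logistic fit; 100% inhibition defined by 3 μM parent compound.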
On the technique in general: In TR-FRET formats the signal depends on donor and acceptor labels being close together.

[1] abbreviates: CaMKIIδ binding assay, results of Table 2.
Setting [2] is: CaMKIIδ binding assay, activity class per Table 2.
[3] abbreviates: Table 2, activity class for CaMKIIδ.
[4] abbreviates: Table 2, CaMKIIδ binding assay, activity given as class A/B/C.

The values below come from patent US10543212B2, “Substituted amines for treating cardiac diseases” (Cardurion Pharmaceuticals, LLC, priority 2017, dated 2020).

The term IC50 denotes the concentration at which inhibition is half-maximal. Low readings indicate higher potency, high ones lower potency.

T1 sequence (Q13557 1-478 isoform Q13557-12): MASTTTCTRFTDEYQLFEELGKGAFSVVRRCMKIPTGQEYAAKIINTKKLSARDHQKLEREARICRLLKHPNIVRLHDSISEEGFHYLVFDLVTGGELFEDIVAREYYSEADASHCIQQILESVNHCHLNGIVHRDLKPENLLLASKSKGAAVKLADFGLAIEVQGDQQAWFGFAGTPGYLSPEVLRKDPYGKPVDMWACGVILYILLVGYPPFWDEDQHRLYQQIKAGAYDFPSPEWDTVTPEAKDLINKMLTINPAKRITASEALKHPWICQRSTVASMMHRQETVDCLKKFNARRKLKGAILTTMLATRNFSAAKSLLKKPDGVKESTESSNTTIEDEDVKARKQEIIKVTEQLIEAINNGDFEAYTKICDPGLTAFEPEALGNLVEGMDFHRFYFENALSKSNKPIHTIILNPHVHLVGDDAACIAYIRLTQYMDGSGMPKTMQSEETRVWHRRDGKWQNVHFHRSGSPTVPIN

Turning to `COC1CCCCC1N1CCC(n2cc(Nc3ncc(-c4ccc(Cl)c(O[C@@H](C)Cn5cnnn5)c4)cn3)c(C(F)(F)F)n2)CC1` (stereo partly drawn) [Example 554, 5-(3-(((S)-1-(1H-tetrazol-1-yl)propan-2-yl)oxy)-4-chlorophenyl)-N-(1-(1-(2-methoxycyclohexyl)piperidin-4-yl)-3-(trifluoromethyl)-1H-pyrazol-4-yl)pyrimidin-2-amine], under setting [1], the IC50 was under 0.01 µM.

For `C[C@@H](Cn1cnnn1)Oc1cc(-c2cnc(Nc3cn(C4CC5(C4)CN(c4ncccn4)C5)nc3OCC(F)(F)F)nc2)ccc1Cl` [Example 952, (S)-5-(3-((1-(1H-tetrazol-1-yl)propan-2-yl)oxy)-4-chlorophenyl)-N-(1-(2-(pyrimidin-2-yl)-2-azaspiro[3.3]heptan-6-yl)-3-(2,2,2-trifluoroethoxy)-1H-pyrazol-4-yl)pyrimidin-2-amine], the IC50 under setting [2] was under 0.01 µM.

Under setting [1], `COc1cc2c(cc1Nc1ncc(-c3ccc(Cl)c(O[C@@H](C)Cn4cnnn4)c3)cn1)C(=O)N(CC1COC1)C2` [Example 445, (S)-6-((5-(3-((1-(1H-tetrazol-1-yl)propan-2-yl)oxy)-4-chlorophenyl)pyrimidin-2-yl)amino)-5-methoxy-2-(oxetan-3-ylmethyl)isoindolin-1-one] returned an IC50 of 0.01 to 0.1 µM.

Under setting [3], `C[C@@H](Cn1cnnn1)Oc1cc(-c2cnc(Nc3cn(CCOC(F)(F)F)nc3C(F)(F)F)nc2)ccc1Cl` [Example 727, (S)-5-(3-((1-(1H-tetrazol-1-yl)propan-2-yl)oxy)-4-chlorophenyl)-N-(1-(2-(trifluoromethoxy)ethyl)-3-(trifluoromethyl)-1H-pyrazol-4-yl)pyrimidin-2-amine] displayed an IC50 of 0.01 to 0.1 µM.

In the case of `COc1cc(C2CCN(C3COC3)CC2)c(C)cc1Nc1ncc(-c2ccc(Cl)c(O[C@@H](C)Cn3cnnn3)c2)cn1` [Example 529, (S)-5-(3-((1-(1H-tetrazol-1-yl)propan-2-yl)oxy)-4-chlorophenyl)-N-(2-methoxy-5-methyl-4-(1-(oxetan-3-yl)piperidin-4-yl)phenyl)pyrimidin-2-amine], under setting [1], the concentration for half-maximal inhibition (IC50) is under 0.01 µM.

Compound `C[C@@H](Cn1cnnn1)Oc1cc(-c2cnc(Nc3cn(CC(C)(C)NC(=O)OC(C)(C)C)nc3C(F)(F)F)nc2)ccc1Cl` [Example 860, tert-butyl (S)-(1-(4-((5-(3-((1-(1H-tetrazol-1-yl)propan-2-yl)oxy)-4-chlorophenyl)pyrimidin-2-yl)amino)-3-(trifluoromethyl)-1H-pyrazol-1-yl)-2-methylpropan-2-yl)carbamate] displayed an IC50 under setting [4] of at least 0.1 µM.

On to `C[C@@H](Cn1cnnn1)Oc1cc(-c2cnc(Nc3cn(CC4CNC4)nc3C(F)(F)F)nc2)ccc1Cl` [Example 597, (S)-5-(3-((1-(1H-tetrazol-1-yl)propan-2-yl)oxy)-4-chlorophenyl)-N-(1-(azetidin-3-ylmethyl)-3-(trifluoromethyl)-1H-pyrazol-4-yl)pyrimidin-2-amine], for which the IC50 under setting [3] was under 0.01 µM.

In the case of `C[C@@H](Cn1cnnn1)Oc1cc(-c2cnc(Nc3cn(CC4CN(C(=O)OC(C)(C)C)C4)nc3C(F)(F)F)nc2)ccc1Cl` [Example 596, tert-butyl (S)-3-((4-((5-(3-((1-(1H-tetrazol-1-yl)propan-2-yl)oxy)-4-chlorophenyl)pyrimidin-2-yl)amino)-3-(trifluoromethyl) -1H-pyrazol-1-yl)methyl)azetidine-1-carboxylate], the IC50 under setting [3] is at least 0.1 µM.

With `CCC1(N2CC3(CC(n4cc(Nc5ncc(-c6ccc(Cl)c(O[C@@H](C)Cn7cnnn7)c6)cn5)c(C(C)C)n4)C3)C2)CCOCC1` [Example 953, (S)-5-(3-((1-(1H-tetrazol-1-yl)propan-2-yl)oxy)-4-chlorophenyl)-N-(1-(2-(4-ethyltetrahydro-2H-pyran-4-yl)-2-azaspiro[3.3]heptan-6-yl)-3-isopropyl-1H-pyrazol-4-yl)pyrimidin-2-amine], the IC50 under setting [2] is under 0.01 µM.

`C[C@@H](Cn1cnnn1)Oc1cc(-c2cnc(Nc3cn(CC4(O)CCC5(CC4)OCCO5)nc3OCC(F)(F)F)nc2)ccc1Cl` [Example 899, (S)-8-((4-((5-(3-((1-(1H-tetrazol-1-yl)propan-2-yl)oxy)-4-chlorophenyl)pyrimidin-2-yl)amino)-3-(2,2,2-trifluoroethoxy)-1H-pyrazol-1-yl)methyl)-1,4-dioxaspiro[4.5]decan-8-ol]: the IC50 under setting [2] is under 0.01 µM.

`CC(C)c1nn(C2CCC(=O)CC2)cc1Nc1ncc(-c2ccc(Cl)c(O[C@@H](C)Cn3cnnn3)c2)cn1` [Example 841, (S)-4-(4-((5-(3-((1-(1H-tetrazol-1-yl)propan-2-yl)oxy)-4-chlorophenyl)pyrimidin-2-yl)amino)-3-isopropyl-1H-pyrazol-1-yl)cyclohexan-1-one] returned an IC50 under setting [4] of under 0.01 µM.

Under setting [4], `C[C@@H](Cn1cc(F)cn1)Oc1cc(-c2cnc(Nc3cn([C@H]4CC[C@@H](N5CCOCC5)CC4)nc3OCC(F)(F)F)nc2)ccc1C#N` [Example 829, 2-(((S)-1-(4-fluoro-1H-pyrazol-1-yl)propan-2-yl)oxy)-4-(2-((1-(cis-4-morpholinocyclohexyl)-3-(2,2,2-trifluoroethoxy)-1H-pyrazol-4-yl)amino)pyrimidin-5-yl)benzonitrile] returned an IC50 of 0.01 to 0.1 µM.

With `Cc1ccc(-c2cnc(Nc3cn(C4CCN(C5CCOCC5)CC4)nc3OCC(F)(F)F)nc2)cc1O[C@@H](C)Cn1cnnn1` [Example 788, (S)-5-(3-((1-(1H-tetrazol-1-yl)propan-2-yl)oxy)-4-methylphenyl)-N-(1-(1-(tetrahydro-2H-pyran-4-yl)piperidin-4-yl)-3-(2,2,2-trifluoroethoxy)-1H-pyrazol-4-yl)pyrimidin-2-amine], the IC50 under setting [4] is under 0.01 µM.

Consider `C[C@@H](Cn1cnnn1)Oc1cc(-c2cnc(Nc3cn([C@H]4C[C@@H](N5CCOCC5)C4)nc3OCC(F)F)nc2)ccc1Cl` [Example 849, (S)-5-(3-((1-(1H-tetrazol-1-yl)propan-2-yl)oxy)-4-chlorophenyl)-N-(3-(2,2-difluoroethoxy)-1-(cis-3-morpholinocyclobutyl)-1H-pyrazol-4-yl)pyrimidin-2-amine], for which the IC50 under setting [4] is under 0.01 µM.

For `C[C@@H](Cn1cnnn1)Oc1cc(-c2cnc(Nc3cn([C@H]4CC[C@@H](N5CCOCC5)CC4)nc3OCC(F)F)nc2)ccc1Cl` [Example 805, 5-(3-(((S)-1-(1H-tetrazol-1-yl)propan-2-yl)oxy)-4-chlorophenyl)-N-(3-(2,2-difluoroethoxy)-1-(cis-4-morpholinocyclohexyl)-1H-pyrazol-4-yl)pyrimidin-2-amine], the IC50 under setting [4] is under 0.01 µM.

`C[C@@H](Cn1cnnn1)Oc1cc(-c2cnc(Nc3cn(C4CCN(C)CC4)nc3OCC(F)F)nc2)ccc1Cl` [Example 793, (S)-5-(3-((1-(1H-tetrazol-1-yl)propan-2-yl)oxy)-4-chlorophenyl)-N-(3-(2,2-difluoroethoxy)-1-(1-methylpiperidin-4-yl)-1H-pyrazol-4-yl)pyrimidin-2-amine] displayed an IC50 under setting [4] of under 0.01 µM.

Take `C[C@@H](Cn1cnnn1)Oc1cc(-c2cnc(Nc3cn(C4CCN(C5CCOCC5)CC4)nc3OCC(F)F)nc2)ccc1Cl` [Example 792, (S)-5-(3-((1-(1H-tetrazol-1-yl)propan-2-yl)oxy)-4-chlorophenyl)-N-(3-(2,2-difluoroethoxy)-1-(1-(tetrahydro-2H-pyran-4-yl)piperidin-4-yl)-1H-pyrazol-4-yl)pyrimidin-2-amine]: the IC50 under setting [4] was under 0.01 µM.

Take `C[C@@H](Cn1cnnn1)Oc1cc(-c2cnc(Nc3cn(CC4(O)CCN(C(=O)OC(C)(C)C)CC4)nc3C(F)(F)F)nc2)ccc1Cl` [Example 874, tert-butyl (S)-4-((4-((5-(3-((1-(1H-tetrazol-1-yl)propan-2-yl)oxy)-4-chlorophenyl)pyrimidin-2-yl)amino)-3-(trifluoromethyl)-1H-pyrazol-1-yl)methyl)-4-hydroxypiperidine-1-carboxylate]: the IC50 under setting [4] was 0.01 to 0.1 µM.

Under setting [2], `CO[C@H]1CC[C@@H](N2CC3(CC(n4cc(Nc5ncc(-c6ccc(Cl)c(O[C@@H](C)Cn7cnnn7)c6)cn5)c(C(C)C)n4)C3)C2)CC1` [Example 1011, 5-(3-(((S)-1-(1H-tetrazol-1-yl)propan-2-yl)oxy)-4-chlorophenyl)-N-(3-isopropyl-1-(2-(cis-4-methoxycyclohexyl)-2-azaspiro[3.3]heptan-6-yl)-1H-pyrazol-4-yl)pyrimidin-2-amine] returned an IC50 of under 0.01 µM.

On to `C[C@@H](Cn1cnnn1)Oc1cc(-c2cnc(Nc3cn(CC4CNC(=O)O4)nc3C(F)(F)F)nc2)ccc1Cl` (stereo partly drawn) [Example 738, 5-((4-((5-(3-(((S)-1-(1H-tetrazol-1-yl)propan-2-yl)oxy)-4-chlorophenyl)pyrimidin-2-yl)amino)-3-(trifluoromethyl)-1H-pyrazol-1-yl)methyl)oxazolidin-2-one], for which the IC50 under setting [4] was under 0.01 µM.

`C[C@@H](Cn1cnnn1)Oc1cc(-c2cnc(Nc3cn(C4CC5(C4)CN(C4CCOCC4)C5)nc3C(F)(F)C(F)(F)F)nc2)ccc1Cl` [Example 959, (S)-5-(3-((1-(1H-tetrazol-1-yl)propan-2-yl)oxy)-4-chlorophenyl)-N-(3-(perfluoroethyl)-1-(2-(tetrahydro-2H-pyran-4-yl)-2-azaspiro[3.3]heptan-6-yl)-1H-pyrazol-4-yl)pyrimidin-2-amine] registered a half-maximal inhibitory concentration (IC50) under setting [2] of under 0.01 µM.

Regarding `C[C@@H](Cn1cnnn1)Oc1cc(-c2cnc(Nc3cn([C@@H]4C[C@H]5CC[C@@H](C4)N5C)nc3C(F)(F)F)nc2)ccc1Cl` [Example 758, 5-(3-(((S)-1-(1H-tetrazol-1-yl)propan-2-yl)oxy)-4-chlorophenyl)-N-(1-((1R,3s,5S)-8-methyl-8-azabicyclo[3.2.1]octan-3-yl)-3-(trifluoromethyl)-1H-pyrazol-4-yl)pyrimidin-2-amine], the IC50 under setting [4] was under 0.01 µM.

`COCC(C)N1CCC(n2cc(Nc3ncc(-c4ccc(Cl)c(O[C@@H](C)Cn5cnnn5)c4)cn3)c(C(F)(F)F)n2)CC1` (stereo partly drawn) [Example 553, 5-(3-(((S)-1-(1H-tetrazol-1-yl)propan-2-yl)oxy)-4-chlorophenyl)-N-(1-(1-(1-methoxypropan-2-yl)piperidin-4-yl)-3-(trifluoromethyl)-1H-pyrazol-4-yl)pyrimidin-2-amine] displayed an IC50 under setting [1] of under 0.01 µM.
